Measurements from patent US12129240B2, “Sulfonium salt, photoacid generator, curable composition and resist composition” (SAN-APRO LTD., priority 2019, dated 2024).

Experiment: Evaluation of solubility in solvent
Format: physicochemical
Conditions: room temperature (25° C.), highest concentration completely dissolved; for Solubility Solvent-4: propylene carbonate; for Solubility Solvent-3: γ-butyrolactone

Row | SMILES | Solubility Solvent-4 [wt %] | Solubility Solvent-3 [wt %]
1 | Cc1ccc(C)c([S+](c2ccc3sc4ccccc4c(=O)c3c2)c2cc(C)c(Sc3ccc4sc5ccccc5c(=O)c4c3)cc2C)c1 (stereo not drawn) [Example 39, [2,5-dimethyl-4-(2-thioxanthonylthio)phenyl](2,5-dimethylphenyl) (2-thioxanthonyl)sulfonium Hexafluoroantimonate] | 23 | 29
2 | Cc1cc([S+](c2ccc3sc4ccccc4c(=O)c3c2)c2cc(C(C)(C)C)ccc2C)c(C(C)(C)C)cc1Sc1ccc2sc3ccccc3c(=O)c2c1 (stereo not drawn) [Example 46, [2-tert-butyl-5-methyl-4-(2-thioxanthonylthio)phenyl](5-tert-butyl-2-methylphenyl) (2-thioxanthonyl)sulfonium tris(pentafluoroethyl) Trifluorophosphate] | 33 | 49
3 | Cc1cccc([S+](c2ccc3sc4ccccc4c(=O)c3c2)c2ccc(Sc3ccc4sc5ccccc5c(=O)c4c3)cc2C)c1 (stereo not drawn) [Example 6, [2-methyl-4-(2-thioxanthonylthio)phenyl](3-methylphenyl) (2-thioxanthonyl)sulfonium tris(pentafluoroethyl) Trifluorophosphate] | 32 | 23
4 | Cc1ccc(C)c([S+](c2ccc3sc4ccccc4c(=O)c3c2)c2cc(C)c(S(=O)(=O)c3ccc4sc5ccccc5c(=O)c4c3)cc2C)c1 (stereo not drawn) [Example 51, [2,5-dimethyl-4-(2-thioxanthonylsulfonyl)phenyl](2,5-dimethylphenyl) (2-thioxanthonyl)sulfonium tris(pentafluoroethyl) Trifluorophosphate] | 32 | 40
5 | CC(C)(C)c1cccc([S+](c2ccc3sc4ccccc4c(=O)c3c2)c2ccc(Sc3ccc4sc5ccccc5c(=O)c4c3)cc2C(C)(C)C)c1 (stereo not drawn) [Example 23, [2-tert-butyl-4-(2-thioxanthonylthio)phenyl](3-tert-butylphenyl) (2-thioxanthonyl)sulfonium Hexafluoroantimonate] | 24 | 25
6 | O=c1c2ccccc2sc2ccc(Sc3ccc([S+](c4ccccc4)c4ccc5sc6ccccc6c(=O)c5c4)cc3)cc12 (stereo not drawn) [Comparative Example 2, reference compound] | 2 | 7
7 | COc1cccc([S+](c2ccc3sc4ccccc4c(=O)c3c2)c2ccc(Sc3ccc4sc5ccccc5c(=O)c4c3)cc2OC)c1 (stereo not drawn) [Example 15, [2-methoxy-4-(2-thioxanthonylthio)phenyl](3-methoxyphenyl) (2-thioxanthonyl)sulfonium Hexafluoroantimonate] | 20 | 18
8 | Cc1ccc(C)c([S+](c2ccc3sc4ccccc4c(=O)c3c2)c2cc(C)c(Sc3ccc4sc5ccccc5c(=O)c4c3)cc2C)c1 (stereo not drawn) [Example 38, [2,5-dimethyl-4-(2-thioxanthonylthio)phenyl](2,5-dimethylphenyl) (2-thioxanthonyl)sulfonium tris(pentafluoroethyl) Trifluorophosphate] | 33 | 40
9 | Cc1cccc([S+](c2ccc3sc4ccccc4c(=O)c3c2)c2ccc(Sc3ccc4sc5ccccc5c(=O)c4c3)cc2C)c1 (stereo not drawn) [Example 4, [2-methyl-4-(2-thioxanthonylthio)phenyl](3-methylphenyl) (2-thioxanthonyl)sulfonium Hexafluorophosphate] | 12 | 12
10 | CC(C)(C)c1cccc([S+](c2ccc3sc4ccccc4c(=O)c3c2)c2ccc(Sc3ccc4sc5ccccc5c(=O)c4c3)cc2C(C)(C)C)c1 (stereo not drawn) [Example 22, [2-tert-butyl-4-(2-thioxanthonylthio)phenyl](3-tert-butylphenyl) (2-thioxanthonyl)sulfonium tris(pentafluoroethyl) Trifluorophosphate] | 33 | 38
11 | Cc1ccc(C)c([S+](c2ccc3sc4ccccc4c(=O)c3c2)c2cc(C)c(Oc3ccc4sc5ccccc5c(=O)c4c3)cc2C)c1 (stereo not drawn) [Example 49, [2,5-dimethyl-4-(2-thioxanthonyloxy)phenyl](2,5-dimethylphenyl) (2-thioxanthonyl)sulfonium tris(pentafluoroethyl) Trifluorophosphate] | 38 | 45
12 | COc1cccc([S+](c2ccc3sc4ccccc4c(=O)c3c2)c2ccc(Sc3ccc4sc5ccccc5c(=O)c4c3)cc2OC)c1 (stereo not drawn) [Example 14, [2-methoxy-4-(2-thioxanthonylthio)phenyl](3-methoxyphenyl) (2-thioxanthonyl)sulfonium tris(pentafluoroethyl) Trifluorophosphate] | 32 | 31
13 | Cc1cc(C)cc([S+](c2ccc3sc4ccccc4c(=O)c3c2)c2c(C)cc(Sc3ccc4sc5ccccc5c(=O)c4c3)cc2C)c1 (stereo not drawn) [Example 28, [2,6-dimethyl-4-(2-thioxanthonylthio)phenyl](3,5-dimethylphenyl) (2-thioxanthonyl)sulfonium Hexafluorophosphate] | 25 | 30
14 | O=c1c2ccccc2sc2ccc(Sc3ccc([S+](c4ccccc4)c4ccc5sc6ccccc6c(=O)c5c4)cc3)cc12 (stereo not drawn) [Comparative Example 3, reference compound] | 32 | 23
15 | COc1cccc([S+](c2ccc3sc4ccccc4c(=O)c3c2)c2ccc(Sc3ccc4sc5ccccc5c(=O)c4c3)cc2OC)c1 (stereo not drawn) [Example 12, [2-methoxy-4-(2-thioxanthonylthio)phenyl](3-methoxyphenyl) (2-thioxanthonyl)sulfonium Hexafluorophosphate] | 21 | 10
16 | O=c1c2ccccc2sc2ccc(Sc3ccc([S+](c4ccccc4)c4ccc5sc6ccccc6c(=O)c5c4)cc3)cc12 (stereo not drawn) [Comparative Example 4, reference compound] | 3 | 9
17 | Cc1ccc(C)c([S+](c2ccc3sc4ccccc4c(=O)c3c2)c2cc(C)c([S+]([O-])c3ccc4sc5ccccc5c(=O)c4c3)cc2C)c1 (stereo not drawn) [Example 50, [2,5-dimethyl-4-(2-thioxanthonylsulfinyl)phenyl](2,5-dimethylphenyl) (2-thioxanthonyl)sulfonium tris(pentafluoroethyl) Trifluorophosphate] | 30 | 40
18 | Cc1cc([S+](c2ccc3sc4ccccc4c(=O)c3c2)c2cc(C(C)(C)C)ccc2C)c(C(C)(C)C)cc1Sc1ccc2sc3ccccc3c(=O)c2c1 (stereo not drawn) [Example 47, [2-tert-butyl-5-methyl-4-(2-thioxanthonylthio)phenyl](5-tert-butyl-2-methylphenyl) (2-thioxanthonyl)sulfonium Hexafluoroantimonate] | 30 | 33
19 | Cc1cccc([S+](c2ccc3sc4ccccc4c(=O)c3c2)c2ccc(Sc3ccc4sc5ccccc5c(=O)c4c3)cc2C)c1 (stereo not drawn) [Example 7, [2-methyl-4-(2-thioxanthonylthio)phenyl](3-methylphenyl) (2-thioxanthonyl)sulfonium Hexafluoroantimonate] | 15 | 15
20 | Cc1cc(C)cc([S+](c2ccc3sc4ccccc4c(=O)c3c2)c2c(C)cc(Sc3ccc4sc5ccccc5c(=O)c4c3)cc2C)c1 (stereo not drawn) [Example 31, [2,6-dimethyl-4-(2-thioxanthonylthio)phenyl](3,5-dimethylphenyl) (2-thioxanthonyl)sulfonium Hexafluoroantimonate] | 23 | 25
21 | Cc1cc([S+](c2ccc3sc4ccccc4c(=O)c3c2)c2cc(C(C)(C)C)ccc2C)c(C(C)(C)C)cc1Sc1ccc2sc3ccccc3c(=O)c2c1 (stereo not drawn) [Example 44, [2-tert-butyl-5-methyl-4-(2-thioxanthonylthio)phenyl](5-tert-butyl-2-methylphenyl) (2-thioxanthonyl)sulfonium Hexafluorophosphate] | 31 | 33
22 | Cc1cc(C)cc([S+](c2ccc3sc4ccccc4c(=O)c3c2)c2c(C)cc(Sc3ccc4sc5ccccc5c(=O)c4c3)cc2C)c1 (stereo not drawn) [Example 30, [2,6-dimethyl-4-(2-thioxanthonylthio)phenyl](3,5-dimethylphenyl) (2-thioxanthonyl)sulfonium tris(pentafluoroethyl) Trifluorophosphate] | 33 | 40
23 | Cc1ccc(C)c([S+](c2ccc3sc4ccccc4c(=O)c3c2)c2cc(C)c(Sc3ccc4sc5ccccc5c(=O)c4c3)cc2C)c1 (stereo not drawn) [Example 36, [2,5-dimethyl-4-(2-thioxanthonylthio)phenyl](2,5-dimethylphenyl) (2-thioxanthonyl)sulfonium Potassium Hexafluorophosphate] | 25 | 25
24 | CC(C)(C)c1cccc([S+](c2ccc3sc4ccccc4c(=O)c3c2)c2ccc(Sc3ccc4sc5ccccc5c(=O)c4c3)cc2C(C)(C)C)c1 (stereo not drawn) [Example 20, [2-tert-butyl-4-(2-thioxanthonylthio)phenyl](3-tert-butylphenyl) (2-thioxanthonyl)sulfonium Hexafluorophosphate] | 27 | 25
